How the values were obtained:
human OAT4 = target: T1, human OAT4 (Homo sapiens, UniProt Q9NSA0); experiment: OAT4 activity assay (carboxyfluorescein transport); format: cell-based
T1 construct: host or cells: HEK-293T
Experimental: (§1) HEK-293T cells were maintained in DMEM/high glucose/L-glutamine/HEPES supplemented with 1 mM sodium pyruvate (Life Technologies) and 10% FBS (PAA Laboratories) at 37 °C in 5% CO2. To express URAT1, OAT4 or OAT1, plasmids were reverse transfected into HEK-293T cells. DNA (10 µg) was mixed with 30 µl of DreamFect Gold (Boca Scientific) in 2 ml OptiMem (Life Technologies). After 20 minutes, 18 ml of media containing 2 × 10^7 cells in suspension was added and mixed, and 200 µl per well were plated onto white clear-bottomed poly-D-lysine coated 96-well plates (BD Biosciences). The cells were assayed the following day.
URAT1 and OAT4 activity assays were performed in assay buffer consisting of 25 mM MES pH 5.5 (from a 1 M MES solution [Sigma] adjusted to pH 5.5 with sodium hydroxide), 125 mM sodium gluconate, 4.8 mM potassium gluconate, 1.2 mM monobasic potassium phosphate, 1.2 mM magnesium sulfate, 1.3 mM calcium gluconate and 5.6 mM glucose. URAT1 inhibitors were serially diluted into assay buffer and added to the cells for 5 minutes prior to addition of substrate. URAT1-expressing cells were incubated with 100 µM ^14C-uric acid for 10 minutes and OAT4-expressing cells were incubated with 20 µM carboxyfluorescein (Life Technologies, Inc.) for 5 minutes. […] Each treatment was measured in triplicate.

human URAT1 h-V18L = target: T2, human URAT1 h-V18L (Homo sapiens, UniProt Q96S37, V18L); experiment: URAT1 activity assay, h-V18L; format: cell-based; conditions: TM1 point mutant, read-out: Verinurad affinity (IC50)
T2 construct: expressed in transfected cells; host or cells: HEK-293T
Excerpt: (§2) Human URAT1 (GenBank BC053348.1, Homo sapiens SLC22A12), rat URAT1 (NCBI NM_001034943.1, Rattus norvegicus Slc22a12) and human OAT4 (NCBI NM_018484.2, Homo sapiens SLC22A11) genes were purchased from Origene Technologies, Inc. and subcloned into pCMV6/neo using NotI. Where indicated, controls transfections used pCMV6/neo. Mutants were produced by site-directed mutagenesis using the QuikChange Lightning Multi Site-Directed Mutagenesis Kit (Agilent Technologies). […] Mutagenic primer sequences are provided in ref. [15] and mutagenic primer sequences for previously unreported mutants shown in Supplementary Table 1. All constructs used in this study were untagged. Human OAT1 was purchased from Fisher Scientific (catalog # MHS1010–7508183 in pSPORT6, NCBI NM_153276.2, Homo sapiens SLC22A6).
(§3) HEK-293T cells were maintained in DMEM/high glucose/L-glutamine/HEPES supplemented with 1 mM sodium pyruvate (Life Technologies) and 10% FBS (PAA Laboratories) at 37 °C in 5% CO2. […]
(§4) URAT1 and OAT4 activity assays were performed in assay buffer consisting of 25 mM MES pH 5.5 (from a 1 M MES solution [Sigma] adjusted to pH 5.5 with sodium hydroxide), 125 mM sodium gluconate, 4.8 mM potassium gluconate, 1.2 mM monobasic potassium phosphate, 1.2 mM magnesium sulfate, 1.3 mM calcium gluconate and 5.6 mM glucose. […] Each treatment was measured in triplicate.

human URAT1 h-T21A = target: T3, human URAT1 h-T21A (Homo sapiens, UniProt Q96S37, T21A); experiment: URAT1 activity assay, h-T21A; format: cell-based; conditions: TM1 point mutant, read-out: Verinurad affinity (IC50)
T3 construct: expressed in transfected cells; host or cells: HEK-293T
Excerpt: as §2, §3, §4

human URAT1 h-M22V = target: T4, human URAT1 h-M22V (Homo sapiens, UniProt Q96S37, M22V); experiment: URAT1 activity assay, h-M22V; format: cell-based; conditions: TM1 point mutant, read-out: Verinurad affinity (IC50)
T4 construct: expressed in transfected cells; host or cells: HEK-293T
Excerpt: as §2, §3, §4

human URAT1 h-S27P = target: T5, human URAT1 h-S27P (Homo sapiens, UniProt Q96S37, S27P); experiment: URAT1 activity assay, h-S27P; format: cell-based
T5 construct: expressed in transfected cells; host or cells: HEK-293T
Excerpt: as §2, §3, §4

human URAT1 h-M29L = target: T6, human URAT1 h-M29L (Homo sapiens, UniProt Q96S37, M29L); experiment: URAT1 activity assay, h-M29L; format: cell-based; conditions: TM1 point mutant, read-out: Verinurad affinity (IC50)
T6 construct: expressed in transfected cells; host or cells: HEK-293T
Excerpt: as §2, §3, §4

human URAT1 h-C32T = target: T7, human URAT1 h-C32T (Homo sapiens, UniProt Q96S37, C32T); experiment: URAT1 activity assay, h-C32T; format: cell-based
T7 construct: expressed in transfected cells; host or cells: HEK-293T
Excerpt: as §2, §3, §4

human URAT1 h-S35N = target: T8, human URAT1 h-S35N (Homo sapiens, UniProt Q96S37, S35N); experiment: URAT1 activity assay, h-S35N; format: cell-based
T8 construct: expressed in transfected cells; host or cells: HEK-293T
Excerpt: as §2, §3, §4

rat URAT1 r-M481I = target: T9, rat URAT1 r-M481I (Rattus norvegicus, UniProt Q3ZAV1, M481I); experiment: URAT1 activity assay, r-M481I; format: cell-based
T9 construct: expressed in transfected cells; host or cells: HEK-293T
Excerpt: as §2, §3, §4

human URAT1 h-F449Y = target: T10, human URAT1 h-F449Y (Homo sapiens, UniProt Q96S37, F449Y); experiment: URAT1 activity assay, h-F449Y; format: cell-based
T10 construct: expressed in transfected cells; host or cells: HEK-293T
T10 sequence (Q96S37 1-553 F449Y): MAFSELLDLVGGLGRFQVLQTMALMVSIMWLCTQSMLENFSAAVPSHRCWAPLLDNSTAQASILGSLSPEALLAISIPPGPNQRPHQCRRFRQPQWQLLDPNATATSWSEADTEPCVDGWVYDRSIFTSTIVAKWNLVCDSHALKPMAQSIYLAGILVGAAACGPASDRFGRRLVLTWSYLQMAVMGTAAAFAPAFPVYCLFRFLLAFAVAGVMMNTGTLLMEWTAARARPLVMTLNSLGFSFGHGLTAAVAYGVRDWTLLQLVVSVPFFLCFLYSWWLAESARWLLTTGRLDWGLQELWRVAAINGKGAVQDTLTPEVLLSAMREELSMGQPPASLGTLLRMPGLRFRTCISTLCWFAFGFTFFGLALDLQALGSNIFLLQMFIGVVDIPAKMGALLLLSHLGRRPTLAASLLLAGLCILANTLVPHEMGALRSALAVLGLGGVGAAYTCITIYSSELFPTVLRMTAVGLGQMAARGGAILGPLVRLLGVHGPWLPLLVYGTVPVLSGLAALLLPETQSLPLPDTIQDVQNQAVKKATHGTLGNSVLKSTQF
Excerpt: as §2, §1
URAT1 and OAT4 activity assays were performed in assay buffer consisting of 25 mM MES pH 5.5 (from a 1 M MES solution [Sigma] adjusted to pH 5.5 with sodium hydroxide), 125 mM sodium gluconate, 4.8 mM potassium gluconate, 1.2 mM monobasic potassium phosphate, 1.2 mM magnesium sulfate, 1.3 mM calcium gluconate and 5.6 mM glucose. URAT1 inhibitors were serially diluted into assay buffer and added to the cells for 5 minutes prior to addition of substrate. URAT1-expressing cells were incubated with 100 µM ^14C-uric acid for 10 minutes and OAT4-expressing cells were incubated with 20 µM carboxyfluorescein (Life Technologies, Inc.) for 5 minutes. Cells were then washed three times in 25 mM MES pH 5.5/125 mM sodium gluconate, and solubilized in Ultima Gold (Perkin Elmer) prior to liquid scintillation counting. Each treatment was measured in triplicate.

healthy human volunteers = experiment: Verinurad study in humans (sUA and FEUA after a single dose); format: in vivo; conditions: single 40 mg dose
Experimental: The study was conducted in accordance with Good Clinical Practice and the Declaration of Helsinki and with independent ethics committee (Welwyn Clinical Pharmacology Ethics Committee, Hatfield, UK) approval. Informed consent was obtained from all subjects before participating in the study. […] Urine samples were collected from 0 to 6 hours, 6 to 12 hours and 12 to 24 hours post dosing to measure the urinary excretion of uric acid and creatinine. FEUA was calculated using equation 1:1 FEUA=([urineuricacid]×[serumcreatinine])/([serumuricacid]×[urinecreatinine]) To determine time-weighted average plasma verinurad concentrations (TWA), plasma verinurad levels were first measured from serial plasma collections.

[1] = TM1 point mutant, read-out: Verinurad affinity (IC50)

T9 sequence (Q3ZAV1 whole entry M481I): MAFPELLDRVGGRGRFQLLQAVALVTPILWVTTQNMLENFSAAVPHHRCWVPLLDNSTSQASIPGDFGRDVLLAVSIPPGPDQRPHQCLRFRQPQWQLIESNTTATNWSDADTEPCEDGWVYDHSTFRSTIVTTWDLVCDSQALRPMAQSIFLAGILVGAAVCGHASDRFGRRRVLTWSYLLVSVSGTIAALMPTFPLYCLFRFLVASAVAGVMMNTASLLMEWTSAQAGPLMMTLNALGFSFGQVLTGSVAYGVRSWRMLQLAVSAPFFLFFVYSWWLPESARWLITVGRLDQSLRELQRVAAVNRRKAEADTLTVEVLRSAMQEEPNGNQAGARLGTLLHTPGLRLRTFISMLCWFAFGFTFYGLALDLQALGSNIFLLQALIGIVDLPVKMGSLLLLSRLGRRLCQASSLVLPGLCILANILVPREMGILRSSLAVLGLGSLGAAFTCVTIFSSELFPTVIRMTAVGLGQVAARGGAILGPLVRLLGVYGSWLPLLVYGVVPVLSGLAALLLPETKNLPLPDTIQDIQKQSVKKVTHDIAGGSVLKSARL
T8 sequence (Q96S37 whole entry S35N): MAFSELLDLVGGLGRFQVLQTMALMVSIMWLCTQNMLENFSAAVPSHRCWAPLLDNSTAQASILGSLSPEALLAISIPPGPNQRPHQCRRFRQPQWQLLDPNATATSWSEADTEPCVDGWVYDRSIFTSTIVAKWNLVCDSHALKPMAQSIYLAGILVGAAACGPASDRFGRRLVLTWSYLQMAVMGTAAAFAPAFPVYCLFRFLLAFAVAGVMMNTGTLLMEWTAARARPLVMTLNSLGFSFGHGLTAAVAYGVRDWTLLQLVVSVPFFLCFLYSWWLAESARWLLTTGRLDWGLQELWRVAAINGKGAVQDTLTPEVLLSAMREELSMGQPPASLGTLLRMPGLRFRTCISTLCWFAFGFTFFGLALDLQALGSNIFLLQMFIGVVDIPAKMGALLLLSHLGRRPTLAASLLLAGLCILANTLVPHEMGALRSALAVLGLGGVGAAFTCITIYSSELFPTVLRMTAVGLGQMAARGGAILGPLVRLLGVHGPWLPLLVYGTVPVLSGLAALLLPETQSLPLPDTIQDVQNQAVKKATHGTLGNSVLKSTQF
T1 sequence (Q9NSA0 whole entry): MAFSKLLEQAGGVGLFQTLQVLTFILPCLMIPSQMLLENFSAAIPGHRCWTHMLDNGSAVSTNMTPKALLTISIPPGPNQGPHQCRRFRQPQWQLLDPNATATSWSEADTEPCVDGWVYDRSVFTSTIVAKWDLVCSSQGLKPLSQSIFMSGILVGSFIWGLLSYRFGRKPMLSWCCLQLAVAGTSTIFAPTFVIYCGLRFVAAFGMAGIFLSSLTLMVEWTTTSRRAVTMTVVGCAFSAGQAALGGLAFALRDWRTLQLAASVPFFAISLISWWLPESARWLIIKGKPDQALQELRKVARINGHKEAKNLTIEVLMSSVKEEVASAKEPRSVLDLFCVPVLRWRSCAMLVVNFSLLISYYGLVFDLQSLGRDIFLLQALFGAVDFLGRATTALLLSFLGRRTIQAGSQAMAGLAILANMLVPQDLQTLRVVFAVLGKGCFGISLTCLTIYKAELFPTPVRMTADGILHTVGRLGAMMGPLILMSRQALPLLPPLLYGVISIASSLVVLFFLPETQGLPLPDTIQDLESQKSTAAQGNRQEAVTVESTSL
T5 sequence (Q96S37 whole entry S27P): as the sequence (Q96S37 whole entry S35N) above, with S27P, N35S counted along it
T7 sequence (Q96S37 whole entry C32T): as the sequence (Q96S37 whole entry S35N) above, with C32T, N35S counted along it
T6 sequence (Q96S37 whole entry M29L): as the sequence (Q96S37 whole entry S35N) above, with M29L, N35S counted along it
T3 sequence (Q96S37 whole entry T21A): as the sequence (Q96S37 whole entry S35N) above, with T21A, N35S counted along it
T4 sequence (Q96S37 whole entry M22V): as the sequence (Q96S37 whole entry S35N) above, with M22V, N35S counted along it
T2 sequence (Q96S37 whole entry V18L): as the sequence (Q96S37 whole entry S35N) above, with V18L, N35S counted along it

Question: With `CC(C)(Sc1ccncc1-c1ccc(C#N)c2ccccc12)C(=O)O` [Verinurad, 2-((3-(4-cyanonaphthalen-1-yl)pyrindin-4-yl)thio)-2-methylpropanoic acid] as the compound, how does the IC50 (human OAT4; human OAT4 in HEK-293T, 20 µM carboxyfluorescein, read-out: IC50, inhibition of transport activity) read?
Answer: Its IC50 is 5.9 ± 1.4 µM.

Question: And the “fold lower affinity compared to URAT1” value (human OAT4; human OAT4 vs human URAT1)?
Answer: The value was “approximately 200 fold”.

Question: And the IC50 (human URAT1 h-V18L)?
Answer: The IC50 was 26 ± 15 nM.

Question: What about the IC50 (human URAT1 h-T21A) of the same compound?
Answer: The IC50 was 26 ± 12 nM.

Question: And the IC50 (human URAT1 h-M22V)?
Answer: Its IC50 is 29 ± 13 nM.

Question: What about the “fold decrease in affinity” value (human URAT1 h-S27P; h-S27P vs human URAT1) of the same compound?
Answer: The value was 1.6 fold.

Question: And the IC50 (human URAT1 h-S27P; h-S27P, TM1 point mutant, read-out: Verinurad affinity (IC50))?
Answer: Its IC50 is 39 ± 9 nM.

Question: What about the IC50 (human URAT1 h-M29L) of the same compound?
Answer: Its IC50 is 11 ± 2.9 nM.

Question: What about the “fold reduced affinity relative to human URAT1” value (human URAT1 h-C32T) of the same compound?
Answer: Its value is 4 fold.

Question: And the IC50 (human URAT1 h-C32T; [1])?
Answer: Its IC50 is 95 ± 26 nM.

Question: And the “fold lower affinity relative to human URAT1” value (human URAT1 h-S35N)?
Answer: The value was 14 fold.

Question: And the IC50 (human URAT1 h-S35N; [1])?
Answer: The IC50 was 360 ± 150 nM.

Question: What about the “fold increase in affinity compared to rat URAT1” value (rat URAT1 r-M481I) of the same compound?
Answer: Its value is 4 fold.

Question: And the IC50 (rat URAT1 r-M481I; TM11 point mutant, read-out: Verinurad affinity (IC50))?
Answer: The IC50 was 11 ± 3.1 µM.

Question: And the “fold reduced affinity compared to human URAT1” value (human URAT1 h-F449Y; h-F449Y)?
Answer: Its value is “the same affinity”.

Question: And the IC50 (human URAT1 h-F449Y; h-F449Y binding site point mutant)?
Answer: The IC50 was 25 nM.

Question: What about the “time sUA is maintained below pretreatment levels” value (healthy human volunteers) of the same compound?
Answer: The value was 24 h.

Question: What about the EC50 (healthy human volunteers; healthy human volunteers, time-weighted average plasma concentration, read-out: half-maximal effective concentration in plasma for increase in FEUA) of the same compound?
Answer: The EC50 was 22 nM.
